From US20150239831A1, “INHIBITORS OF CENTRAL NERVOUS SYSTEM VASOACTIVE INHIBITORY PEPTIDE RECEPTOR 2” (The Trustees Of Columbia University In The City Of New York, priority 2012, published 2015)

Tests used:
Type in all cases: cell-based
Parameters in all cases: expressed in transfected cells; host or cells: HEK293 cells transfected with VIPR2 in pCDNA3.1 (as described)
[1] = biological target: T1, VIPR2 (Homo sapiens, UniProt P41587); assay: Inhibition of VIP-induced cAMP elevation (% Activity cAMP)
T1 sequence (P41587 24-438): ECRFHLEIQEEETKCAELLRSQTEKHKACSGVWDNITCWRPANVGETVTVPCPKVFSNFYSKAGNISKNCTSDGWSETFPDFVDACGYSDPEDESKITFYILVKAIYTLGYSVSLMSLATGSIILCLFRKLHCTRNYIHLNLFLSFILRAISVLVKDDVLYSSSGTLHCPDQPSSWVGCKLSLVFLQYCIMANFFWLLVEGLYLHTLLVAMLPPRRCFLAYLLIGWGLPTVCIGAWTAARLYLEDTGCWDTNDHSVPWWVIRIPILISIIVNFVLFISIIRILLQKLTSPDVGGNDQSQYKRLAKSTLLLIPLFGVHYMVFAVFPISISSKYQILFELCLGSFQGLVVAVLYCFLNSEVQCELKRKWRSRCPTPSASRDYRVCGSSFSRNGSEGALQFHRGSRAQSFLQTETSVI
From the text: (§1) In a further non-limiting embodiment of the invention, the ability of a compound to inhibit VIPR2 and thereby […] a VIP-induced increase in cAMP may be measured using a Homogeneous Time-Resolved Fluorescence (“HTRF® assay; Cisbio Bioassays) as used in Chu et al., 2010, Molecular Pharmacol. 7795-101. In a method as used in Chu et al., 2010, Molecular Pharmacol. 7795-101, HEK293 cells may be transfected with nucleic acid encoding VIPR2, for example human VIPR2 (“hVIPR2”), for example comprised in a vector such as pCDNA3.1 vector. Successful transformants may then be selected, for example using 800 μg/ml G418. Clonal stable cell lines may then be generated by limited dilution to single cells and then may be clonally expanded and tested for VIP -dependent cAMP response. For the cAMP assay, about 3000-15,000 cells (in about 4-25 μl) may be placed in a well of an assay plate. The next day, inhibitor or test inhibitor and VIP may be added in a volume about 1-2 percent of the initial volume. Assay plates may then be returned to a cell incubator for 30 min before addition of a one-half volume of cAMP conjugate and, relative to the amount of cAMP conjugate, an equal volume of anti-cAMP conjugate (Cisbio). After at least 1 h of room-temperature incubation, HTRF signal may be read, for example using Viewlux or EnVision (PerkinElmer Life and Analytical Sciences, Waltham, Mass.). The ratio of […] at 665 nm and 620 nm times 10,000 may be calculated and plotted.
(§2) A series of compounds were prepared using a synthetic method analogous to that set forth in Scheme 1, above, and then tested for their ability to inhibit VIP-induced cAMP elevation and β-arrestin recruitment.
(§3) A series of compounds were prepared using a synthetic method analogous to that set forth in Scheme 1, above, and then tested for their ability to inhibit VIP-induced cAMP elevation and β-arrestin recruitment, as described herein (Discoverx Corporation, Fremont, Calif., US). Compound activities were also tested in a BRET-based assay, as described herein. The results are shown below in Tables 1-4, above.

[2] = biological target: T1, VIPR2; assay: Inhibition of VIP-induced β-arrestin recruitment (% Activity Arrestin)
From the text: (§4) In a further non-limiting embodiment of the invention, the ability of a compound to inhibit VIPR2 GPCR activity may be tested, for example, using the PathHunter® eXpress β-Arrestin GPCR system (Discoverx Corporation, Fremont, Calif., US), as used by Chu et al., 2010, Molecular Pharmacol. 7795-101. In this assay, β-Arrestin is fused to the “Enzyme Acceptor” (“EA”), an N-terminal deletion mutant of β-gal, and the GPCR of interest is fused to a smaller (42 amino acids), weakly complementing portion of the β-gal enzyme (termed “ProLink™”). In cells that stably express these fusion proteins, the interaction of β-Arrestin and the GPCR following ligand stimulation forces the complementation of the two β-gal fragments resulting in the formation of a functional enzyme that converts substrate to detectable signal. In the absence of an interaction between the GPCR and β-Arrestin, the enzyme activity is low due to the low affinity of the two enzyme fragments. For example, a nucleic acid encoding VIPR2, for example hVIPR2, may be cloned into the ProLink vector (DiscoveRx) for GPCR-ProLink fusion protein production. Parental HEK293 cells that stably express β-arrestin2-β-gal-EA fusion protein (DiscoveRx) may be detached and transiently transfected with the VIPR2-containing vector using Fugene6 transfection reagent in suspension mode. Transfected cells in assay medium may be plated into test plates, for example at 15,000 cells/25 μl/well. After overnight incubation, 500 nl of an inhibitor or test inhibitor may be introduced into the test plate followed by 2 h incubation at 37° C., 5% CO2. Flash detection reagents may be added at 12.5 μl/well. After 5 min to 1 h of room-temperature incubation, the cell plates may be read on CLIPR (PerkinElmer Life and Analytical Sciences)or Acquest (Molecular Devices, Sunnyvale, Calif.) for luminescence signal.
as §2, §3

[3] = biological target: T1, VIPR2; assay: % Activity: inhibition of VIP-induced cAMP elevation and β-arrestin recruitment (Table 2)
From the text: as §1, §4, §3

`CC(C)(C)c1ccc(S(=O)(=O)NC[C@@H](O)C[C@@H](Cc2ccccc2)C(=O)N[C@H]2c3ccccc3C[C@H]2O)cc1` [A, reference compound] showed an inhibition at 0.5 µM ([1]; Batch 1) of 9.7%, an inhibition at 1 µM ([1]; Batch 1) of 13% and an inhibition at 5 µM ([1]; Batch 1) of 72.1%. For the same compound, the inhibition at 0.5 µM ([2]; Batch 1) was 0%, the inhibition at 1 µM ([2]; Batch 1) was 18.1% and the inhibition at 5 µM ([2]; Batch 1) was 56.7%.
With `O=C(NC[C@@H](O)C[C@@H](Cc1ccccc1)C(=O)N[C@H]1c2ccccc2C[C@H]1O)c1ccc2ccccc2c1` [B] the inhibition at 0.5 µM ([1]; Batch 1) was 13.2%, the inhibition at 1 µM ([1]; Batch 1) was 16.3% and the inhibition at 5 µM ([1]; Batch 1) was 23.5%. For the same compound, the inhibition at 0.5 µM ([2]; Batch 1) was -2.9%, the inhibition at 1 µM ([2]; Batch 1) was 11.1% and the inhibition at 5 µM ([2]; Batch 1) was 9.7%. The “% Activity” value [3] was 16.6%.
With `O=C(NC[C@@H](O)C[C@@H](Cc1ccccc1)C(=O)N[C@H]1c2ccccc2C[C@H]1O)C1CC1` [Compound A1] the inhibition at 0.5 µM ([1]; Batch 1) was 21%, the inhibition at 1 µM ([1]; Batch 1) was 21.1% and the inhibition at 5 µM ([1]; Batch 1) was 24%. The inhibition at 0.5 µM ([2]; Batch 1) was -3.8%, the inhibition at 1 µM ([2]; Batch 1) was 37% and the inhibition at 5 µM ([2]; Batch 1) was 29.1%. The “% Activity” value [3] was 26.55%.
`O=C(NC[C@@H](O)C[C@@H](Cc1ccccc1)C(=O)N[C@H]1c2ccccc2C[C@H]1O)c1ccco1` [Compound A2] was tested, and the inhibition at 0.5 µM ([1]; Batch 1) was 20.8%, the inhibition at 1 µM ([1]; Batch 1) was 22.5% and the inhibition at 5 µM ([1]; Batch 1) was 19.1%. For the same compound, the inhibition at 0.5 µM ([2]; Batch 1) was 30.3%, the inhibition at 1 µM ([2]; Batch 1) was 27.7% and the inhibition at 5 µM ([2]; Batch 1) was 33.3%. The “% Activity” value [3] was 26.2%.
`Cc1cc(S(=O)(=O)NC[C@@H](O)C[C@@H](Cc2ccccc2)C(=O)N[C@H]2c3ccccc3C[C@H]2O)c(C)cc1Cl` [Compound A3] gave an inhibition at 0.5 µM ([1]; Batch 1) of 20.6%, an inhibition at 1 µM ([1]; Batch 1) of 21.6% and an inhibition at 5 µM ([1]; Batch 1) of 41.1%. For the same compound, the inhibition at 0.5 µM ([2]; Batch 1) was 17.6%, the inhibition at 1 µM ([2]; Batch 1) was 30.2% and the inhibition at 5 µM ([2]; Batch 1) was 0.6%. The “% Activity” value [3] was 20.85%.
Work on `CS(=O)(=O)NC[C@@H](O)C[C@@H](Cc1ccccc1)C(=O)N[C@H]1c2ccccc2C[C@H]1O` [Compound A5] yielded an inhibition at 0.5 µM ([1]; Batch 1) of 21.4%, an inhibition at 1 µM ([1]; Batch 1) of 21.9% and an inhibition at 5 µM ([1]; Batch 1) of 18.5%. It also gave an inhibition at 0.5 µM ([2]; Batch 1) of 17.3%, an inhibition at 1 µM ([2]; Batch 1) of 31.6% and an inhibition at 5 µM ([2]; Batch 1) of 23.4%. The “% Activity” value [3] was 20.95%.
In the case of `O=C(NC[C@@H](O)C[C@@H](Cc1ccccc1)C(=O)N[C@H]1c2ccccc2C[C@H]1O)C(Cl)Cl` [Compound A6], the inhibition at 0.5 µM ([1]; Batch 1) is reported as 18.4%, the inhibition at 1 µM ([1]; Batch 1) is reported as 18.3% and the inhibition at 5 µM ([1]; Batch 1) is reported as 19.6%. It also gave an inhibition at 0.5 µM ([2]; Batch 1) of 9.5%, an inhibition at 1 µM ([2]; Batch 1) of 17.4% and an inhibition at 5 µM ([2]; Batch 1) of 20%. For the same compound, the “% Activity” value [3] was 19.8%.
`O=C(CCl)NC[C@@H](O)C[C@@H](Cc1ccccc1)C(=O)N[C@H]1c2ccccc2C[C@H]1O` [Compound A7] showed an inhibition at 0.5 µM ([1]; Batch 1) of 18.4%, an inhibition at 1 µM ([1]; Batch 1) of 19.2% and an inhibition at 5 µM ([1]; Batch 1) of 15.6%. It also gave an inhibition at 0.5 µM ([2]; Batch 1) of 9.9%, an inhibition at 1 µM ([2]; Batch 1) of 23.7% and an inhibition at 5 µM ([2]; Batch 1) of 17.5%. For the same compound, the “% Activity” value [3] was 16.55%.
In the case of `O=C(NC[C@@H](O)C[C@@H](Cc1ccccc1)C(=O)N[C@H]1c2ccccc2C[C@H]1O)C1CCCCCC1` [Compound A8], the inhibition at 0.5 µM ([1]; Batch 1) is reported as 18.4%, the inhibition at 1 µM ([1]; Batch 1) is reported as 17% and the inhibition at 5 µM ([1]; Batch 1) is reported as 17%. For the same compound, the inhibition at 0.5 µM ([2]; Batch 1) was 24.4%, the inhibition at 1 µM ([2]; Batch 1) was 16.4% and the inhibition at 5 µM ([2]; Batch 1) was 10.5%. For the same compound, the “% Activity” value [3] was 13.75%.
`O=C(N[C@H]1c2ccccc2C[C@H]1O)[C@H](Cc1ccccc1)C[C@H](O)CNS(=O)(=O)c1ccc([N+](=O)[O-])cc1` [Compound A27, reference compound] gave an inhibition at 0.5 µM ([1]; Batch 1) of 42.6%, an inhibition at 0.5 µM ([1]; Batch 2) of 38.7% and an inhibition at 0.5 µM ([1]; Batch 3) of 74.3%. The inhibition at 1 µM ([1]; Batch 1) was 71.3%, the inhibition at 1 µM ([1]; Batch 2) was 70.9% and the inhibition at 1 µM ([1]; Batch 3) was 86.1%. For the same compound, the inhibition at 5 µM ([1]; Batch 1) was 99.1%, the inhibition at 5 µM ([1]; Batch 2) was 100% and the inhibition at 5 µM ([1]; Batch 3) was 97.8%. For the same compound, the inhibition at 0.5 µM ([2]; Batch 1) was 37.7%, the inhibition at 0.5 µM ([2]; Batch 2) was 15.6% and the inhibition at 0.5 µM ([2]; Batch 3) was 2.6%. The inhibition at 1 µM ([2]; Batch 1) was 74.6%, the inhibition at 1 µM ([2]; Batch 2) was 38.6% and the inhibition at 1 µM ([2]; Batch 3) was -2.6%. It also gave an inhibition at 5 µM ([2]; Batch 1) of 88.7%, an inhibition at 5 µM ([2]; Batch 2) of 92% and an inhibition at 5 µM ([2]; Batch 3) of 29.3%.
